How the values were obtained:
Assay in all cases: Bliss interaction score (quartile over a dose matrix) (fitness difference); higher = more antagonism (negative = synergy)
B. subtilis 168 = tested on: B. subtilis 168
Outline: (§1)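 Growth was read as OD595 when cultures entered stationary phase, and each value was divided by the plate's robust no-drug mean and capped at 1. This normalised ratio is the fitness value, and fitness for each single drug came from the combination data. The Bliss score subtracts the expected fitness, taken as the product, from the observed fitness and is given as quartiles across technical, biological and donor/recipient replicates.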

S. aureus DSM 20231 = tested on: S. aureus DSM 20231
Outline: as §1

S. aureus Newman = tested on: S. aureus Newman
Outline: as §1

S. pneumoniae D39V = tested on: S. pneumoniae D39V
Outline: as §1
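Further: first quartile when negative (synergy) and third quartile when positive (antagonism).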

| SMILES | Bliss interaction score (B. subtilis 168) | Bliss interaction score (S. aureus DSM 20231) | Bliss interaction score (S. aureus Newman) | Bliss interaction score (S. pneumoniae D39V) |
| --- | --- | --- | --- | --- |
| N#CC(C#N)=NNc1cccc(Cl)c1 [CCCP] + CC1=C(C(=O)O)N2C(=O)[C@@H](NC(=O)[C@H](N)c3ccccc3)[C@H]2SC1 [Cephalexin] | 0.0431 | 0.0708 | -0.0498 | -0.0759 |
| CC(=O)Oc1ccccc1C(=O)O [Acetylsalicylicacid] + CO/N=C(\C(=O)N[C@@H]1C(=O)N2C(C(=O)O)=C(COC(N)=O)CS[C@H]12)c1ccco1 [Cefuroxime] | 0.177 | -0.628 | 0.0943 | 0.057 |
| CC(=O)Oc1ccccc1C(=O)O [Acetylsalicylicacid] + C[C@H]1COc2c(N3CCN(C)CC3)c(F)cc3c(=O)c(C(=O)O)cn1c23 [Levofloxacin] | 0.12 | 0.0854 | 0.12 | 0.142 |
| C[C@H]1c2cccc(O)c2C(=O)C2=C(O)[C@]3(O)C(=O)C(C(N)=O)=C(O)[C@@H](N(C)C)[C@@H]3[C@@H](O)[C@@H]21 [Doxycycline] + CN[C@H](CC(C)C)C(=O)N[C@H]1C(=O)N[C@@H](CC(N)=O)C(=O)N[C@H]2C(=O)N[C@H]3C(=O)N[C@H](C(=O)N[C@H](C(=O)O)c4cc(O)cc(O)c4-c4cc3ccc4O)[C@H](O[C@H]3C[C@](C)(N)[C@@H](O)[C@H](C)O3)c3ccc(c(Cl)c3)Oc3cc2cc(c3O[C@@H]2O[C@H](CO)[C@@H](O)[C@H](O)[C@H]2O[C@H]2C[C@](C)(NCc3ccc(-c4ccc(Cl)cc4)cc3)[C@@H](O)[C@H](C)O2)Oc2ccc(cc2Cl)[C@H]1O [Oritavancin] | 0.0303 | -0.0271 | 0.0145 | 0.0456 |
| N#CC(C#N)=NNc1cccc(Cl)c1 [CCCP] + CC[C@H]1OC(=O)[C@H](C)C(=O)[C@H](C)[C@@H](O[C@@H]2O[C@H](C)C[C@H](N(C)C)[C@H]2O)[C@](C)(OC)C[C@@H](C)C(=O)[C@H](C)[C@H]2N(CCCCn3cnc(-c4cccnc4)c3)C(=O)O[C@]12C [Telithromycin] | -0.0441 | -0.0246 | -0.0206 | -0.0245 |
| CC(=O)Oc1ccccc1C(=O)O [Acetylsalicylicacid] + CN[C@@H]1[C@H](O)[C@H](NC)[C@H]2O[C@@]3(O)C(=O)C[C@@H](C)O[C@H]3O[C@@H]2[C@H]1O [Spectinomycin] | 0.137 | -0.0696 | 0.0859 | -0.0679 |
| N#CC(C#N)=NNc1cccc(Cl)c1 [CCCP] + COc1c(N2C[C@@H]3CCCN[C@@H]3C2)c(F)cc2c(=O)c(C(=O)O)cn(C3CC3)c12 [Moxifloxacin] | 0.0233 | -0.0373 | -0.0686 | 0.0433 |
| CO/N=C(\C(=O)N[C@@H]1C(=O)N2C(C(=O)O)=C(COC(C)=O)CS[C@H]12)c1csc(N)n1 [Cefotaxime] + CCC[C@@H]1C[C@@H](C(=O)N[C@@H]([C@H]2O[C@H](SC)[C@H](O)[C@@H](O)[C@H]2O)[C@H](C)Cl)N(C)C1 [Clindamycin] | 0.0327 | 0.0463 | -0.0656 | 0.113 |
| CO/N=C(\C(=O)N[C@@H]1C(=O)N2C(C(=O)O)=C(COC(N)=O)CS[C@H]12)c1ccco1 [Cefuroxime] + O=C(O)[C@H]1/C(=C/CO)O[C@@H]2CC(=O)N21 [Clavulanic] | -0.0417 |  |  | -0.0363 |

Source: the supplement of paper PMC10627819
